Tests used:
[1] = tested on: primary cultured myotube; assay: Primary cell culture and real-time PCR gene expression analysis; assay type: cell-based, mouse; conditions: 300 nM, real-time PCR
Description: (§1) However, it has not been reported that the PPARs response element (PPRE) is present at promoters of these three genes. Therefore, the present inventors resected the muscle of the mouse with the removal of PPAR δ gene and conducted primary culture, in order to verify whether or not the increases in expressions of the above three genes are PPAR δ-dependent. After hind legs of a five-day-old fetus was resected, primary culture was conducted by the same method as developed by Rando (Rando et al, J. Cell. Biol., 1994, 125, 1275-1287). Myoblast, after being cultured, was transferred to a 6-well plate, and then differentiated into myotube while being treated with 300 nM of PPAR δ agonist (CMDD1111). The differentiated myotube was further treated with 300 nM of PPAR δ agonist (CMDD1111) for 2 days, and then total RNA was extracted by using a TRIzol reagent (Gibco). The extracted RNA was subjected to reverse transcription, to synthesize cDNA, which was then used as a template for real-time PCR analysis.

[2] = tested on: slow muscle fibers in the gastrocnemius muscle; assay: Muscle fiber type analysis (muscle colour, metachromatic staining, slow type MHC immunostaining); assay type: in vivo, mice
Excerpt: The slow muscle fiber has a lot of myoglobin, which is oxygen transfer protein, and thus appears redder than the fast muscle. When the skin of the fetus was removed and the muscle thereof was observed, it may be seen that administered mice group had redder muscle (FIGS. 7A and 7B). In order to confirm whether or not slow muscle fiber generation was increased due to the administration material (CMDD1111), hind legs thereof were resected and then frozen in OCT. Frozen muscle tissues were cut into […] sections by using a freezing cryotome, and mounted on slides, which was then subjected to metachromatic staining. The slow muscle fiber was stained darker blue than the fast muscle by the metachromatic staining. […] Muscle fibers may be discernable even by immunostaining using an isoform antibody of the myosin heavy chain (MHC). The present inventors conducted immunostaining using the slow type MHC in order to confirm whether or not slow muscle fibers were increased by the administration material (CMDD1111).

[3] = tested on: PPAR δ-deficient cells; assay: Primary cell culture and real-time PCR gene expression analysis, PPAR δ-deficient cells; assay type: cell-based, mouse; conditions: 300 nM
Description: as §1
As the result of real-time PCR analysis, expressions of PDK4 and CPT-1, known to be directly regulated by PPAR δ, were increased by 2.2 fold and 1.5 fold, respectively. However, there was no change in PPAR δ-deficient cells. This means that expressions of PDK4 and CPT-1 are PPAR δ-dependently regulated. […]

[4] = tested on: leptin receptor-deficient mouse (db/db); assay: Glucose tolerance test in type II diabetes mouse model after fetal reprogramming; assay type: in vivo; conditions: homo type male db/db fetuses; mother dosed only during lactation
Description: The present researchers have checked the fetal reprogramming effect of PPAR δ by using a leptin receptor-deficient mouse (db/db). After hetero type female and male mice were bred, the PPAR δ agonist (CMDD1111) was administered to the female mice only during the lactation period. The glucose tolerance test (GTT) was conducted using only homo type male fetuses having induced diabetes through gene analysis and blood glucose analysis.

[5] = tested on: mice subjected to fetal reprogramming; assay: Respiratory exchange ratio (RER) measurement using Oximax; assay type: in vivo
Description: RER is a ratio of the amount of CO2 exhaled to O2 inhaled in one breath. The RER is 1.0 when carbohydrate is mainly used for energy production, while the RER is 0.7 when fat is used. […] The RER experiment using Oximax (Columbus) was conducted in order to evaluate whether or not this increase in slow muscle fiber generation actually influenced mouse energy metabolism. […] Since the RER has a periodic value depending on the time, the RER difference between the two groups was more clearly compared by using AUL, in order to check the RER difference between the two groups. The average AUL value of the control group was 107.4±1.4. Whereas, the average AUL value of the mouse group subjected to fetal reprogramming was 102.2±2.8, which was lower than that of the mouse control group (FIG. 17).
The present inventors checked a difference in lipid oxidation capacity between the two groups by using the following equations.
Carbohydrate oxidation=(4.51·RER−3.18)·VO2
Lipid oxidation=1.67·(1−RER)·VO2
As the calculation result, it may be seen that the mouse group to which PPAR δ agonist (CMDD1111) was administered during the fetal programming period used more lipid by average 44% (6.6 mg/kgmin vs. 9.5 mg/kgmin) but less carbohydrate by 20% (48 mg/kgmin vs. 38 mg/kgmin), as compared with the control group to which vehicle was administered. Therefore, it may be seen that the mice in which PPAR δ was activated during the fetal programming period had increased slow muscle fiber generation and thus increased the lipometabolism.

[6] = tested on: gene expression in gastrocnemius muscle; assay: Gene expression analysis using microarray; assay type: in vivo, mice
Excerpt: As for an animal, the gastrocnemius muscle of 3-week old mice fetal-reprogrammed by PPAR δ agonist (CMDD1111) was resected, and then total RNA was extracted by using the Trizol reagent (Gibco). The isolated RNA was subjected to quantitative and purity verification processes, and then used for gene expression analysis using a Mouse 430 2.0 (Affimatrix) chip.

[7] = microarray, gastrocnemius muscle, 3-week old mice

`Cc1cc(SC(Cc2ccccc2)c2sc(-c3ccc(C(F)(F)F)cc3)nc2C)ccc1OCC(=O)O` (stereo not drawn) [CMDD1111] was tested, and the “expression of ATP2A2” value [1] was 4.3 fold, the “expression of CPT-1” value [1] was 1.5 fold and the “expression of PDK4” value [1] was 2.2 fold. The “expression of PLN” value [1] was 1.7 fold, the “expression of RYR” value [1] was 2.2 fold and the “expression of TNNI3” value [1] was 1.7 fold. The “muscle colour after skin removal” value ([2]; fetal reprogramming, maternal 10 mg/kg) was “redder muscle”, the “muscle fibers responsive to slow type MHC, immunostaining” value ([2]; gastrocnemius muscle) was “increased” and the “slow (dark blue) muscle fibers, metachromatic staining” value ([2]; gastrocnemius muscle) was “increasingly generated”. For the same molecule, the “expressions of PDK4 and CPT-1” value [3] was “no change”, the “glucose tolerance (GTT)” value [4] was “improved” and the carbohydrate oxidation ([5]; calculated from RER and VO2) was 38 mg/kgmin. For the same molecule, the “less carbohydrate used versus vehicle control” value ([5]; calculated from RER and VO2) was 20%, the lipid oxidation ([5]; calculated from RER and VO2) was 9.5 mg/kgmin and the “more lipid used versus vehicle control” value ([5]; calculated from RER and VO2) was 44%. The “average AUL value of RER” value ([5]; mouse group subjected to fetal reprogramming) was 102.2±2.8, the “expressions of genes commonly expressed in the heart muscle (RYR2, ATP2A2, PLN)” value ([6]; fetal-reprogrammed mouse group) was “remarkably increased” and the “expression of ATPase, Ca2+ transporting (SERCA)” value [6, 7] was 1.4 fold. The “expression of CamIIb” value [6, 7] was 1.4 fold, the “expression of CamIId” value [6, 7] was 1.8 fold and the “expression of HDAC4 (decrease)” value [6, 7] was −1.5 fold. The “expression of Mef2a” value [6, 7] was 1.4 fold, the “expression of PPARγ coactivator 1a” value [6, 7] was 1.7 folds and the “expression of Troponin I” value [6, 7] was 3.2 fold. The “expression of Troponin T2” value [6, 7] was 2.3 fold, the “expression of acyl CoA dehydrogenase (ACAD)” value [6, 7] was 1.7 fold and the “expression of acyl CoA synthetase (ACSL)” value [6, 7] was 1.5 fold. The “expression of carnitine palmitoyl transferase 1a (CPT-1a)” value [6, 7] was 1.4 fold, the “expression of cytochrome 8a (COX8A)” value [6, 7] was 1.7 fold and the “expression of myosin binding protein C3 (MYBPC3)” value [6, 7] was 2.8 fold. For the same molecule, the “expression of myosin heavy chain 6 (Myh6)” value [6, 7] was 2.7 fold, the “expression of myosin light chain 7 (Myl7)” value [6, 7] was 2.9 fold and the “expression of pantothenate kinase 1 (PANK1)” value [6, 7] was 2.4 fold. For the same molecule, the “expression of phospholamban (PLN)” value [6, 7] was 2.8 fold, the “expression of ryanodine receptor 2 (RYR2)” value [6, 7] was 2.8 fold and the “expression of ryanodine receptor 3 (RYR3)” value [6, 7] was 2.0 fold. For the same molecule, the expression of ubiquinone [6, 7] was 2.0 fold, the “expression of uncoupling protein 2 (UCP2)” value [6, 7] was 1.5 fold and the “expression of uncoupling protein 3 (UCP3)” value [6, 7] was 2.3 fold.
